Source: ChEMBL document CHEMBL1165848, “Discovery of new cholesteryl ester transfer protein inhibitors via ligand-based pharmacophore modeling and QSAR analysis followed by synthetic exploration” (Eur J Med Chem, 2010)

Biological target: T1, Cholesteryl ester transfer protein (Oryctolagus cuniculus, UniProt P22687)
T1 sequence (P22687 whole entry): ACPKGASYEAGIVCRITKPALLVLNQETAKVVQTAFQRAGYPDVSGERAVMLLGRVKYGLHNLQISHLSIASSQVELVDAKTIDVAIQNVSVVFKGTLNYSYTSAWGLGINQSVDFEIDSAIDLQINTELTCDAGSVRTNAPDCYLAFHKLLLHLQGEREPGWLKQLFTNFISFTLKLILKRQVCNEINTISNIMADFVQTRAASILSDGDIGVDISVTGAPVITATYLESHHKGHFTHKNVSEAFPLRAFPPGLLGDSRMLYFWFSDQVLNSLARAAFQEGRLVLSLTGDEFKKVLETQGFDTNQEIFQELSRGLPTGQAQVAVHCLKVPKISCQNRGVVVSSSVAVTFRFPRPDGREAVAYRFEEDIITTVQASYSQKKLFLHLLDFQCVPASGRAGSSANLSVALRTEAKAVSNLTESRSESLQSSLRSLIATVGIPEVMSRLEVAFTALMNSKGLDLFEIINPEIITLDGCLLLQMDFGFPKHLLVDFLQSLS
Assay: Inhibition of CETP in rabbit serum after 1 hr by fluorescent cholesteryl esters transfer assay
Conditions: not given

IC50 | Compound
0.3 µM | CC(C)Oc1cccc(N(Cc2cccc(OC(F)(F)C(F)F)c2)CC(O)C(F)(F)F)c1 (centres undefined)

Same assay, conditions: read-out: IC50

IC50 | Compound
> 50 µM | C=CC(O)CN(Cc1cccc(OC(F)(F)F)c1)c1ccccc1Oc1ccccc1 (centres undefined)
0.4 µM | OC(CN(Cc1cccc(OC(F)(F)C(F)F)c1)c1cccc(Oc2ccc(OC(F)(F)F)cc2)c1)C(F)(F)F (centres undefined)
0.3 µM | OC(CN(Cc1cccc(OC(F)(F)C(F)F)c1)c1cccc(Oc2ccccc2Cl)c1)C(F)(F)F (centres undefined)
0.04 µM | CCc1cc(Oc2cccc(N(Cc3ccc(C(F)(F)F)cc3F)C[C@@H](O)C(F)(F)F)c2)ccc1Cl
> 50 µM | OC(Cc1ccccc1)CN(Cc1cccc(OC(F)(F)F)c1)c1ccccc1Oc1ccccc1 (centres undefined)
0.08 µM | OC(CN(Cc1cccc(OC(F)(F)C(F)F)c1)c1cccc(Oc2ccc(Cl)c(Cl)c2)c1)C(F)(F)F (centres undefined)
14.3 µM | OC(CN(Cc1cccc(-c2cccnc2)c1)c1cccc(Oc2ccccc2)c1)C(F)(F)F (centres undefined)
4.5 µM | OC(CN(Cc1cccc(OC(F)(F)C(F)F)c1)c1cccc(F)c1)C(F)(F)F (centres undefined)
> 100 µM | OC(CN(Cc1ccccc1C(F)(F)F)c1cccc(F)c1)C(F)(F)F (centres undefined)
1.3 µM | COc1cccc(Oc2cccc(N(Cc3cccc(OCC(O)C(F)(F)F)c3)CC(O)C(F)(F)F)c2)c1 (centres undefined)
0.2 µM | CN(C)c1cccc(Oc2cccc(N(Cc3cccc(OC(F)(F)C(F)F)c3)CC(O)C(F)(F)F)c2)c1 (centres undefined)
0.2 µM | OC(CN(Cc1cccc(OC(F)(F)C(F)F)c1)c1cccc(Oc2cc(F)cc(F)c2)c1)C(F)(F)F (centres undefined)
0.2 µM | OC(CN(Cc1cccc(OC(F)(F)C(F)F)c1)c1cccc(OCc2ccccc2)c1)C(F)(F)F (centres undefined)
0.4 µM | CC(C)c1ccc(Oc2cccc(N(Cc3cccc(OC(F)(F)C(F)F)c3)CC(O)C(F)(F)F)c2)cc1 (centres undefined)
> 100 µM | Cc1cccc(CN(CC(O)C(F)(F)F)c2cccc(F)c2)c1 (centres undefined)
0.045 µM | CCc1cc(Oc2cccc(N(Cc3cccc(C(F)(F)C(F)(F)F)c3)C[C@@H](O)C(F)(F)F)c2)ccc1Cl

IC50 | Compound
20 µM | OC(CN(Cc1ccc(-c2ccccc2)cc1)c1cccc(F)c1)C(F)(F)F (centres undefined)
> 50 µM | OC(CN(Cc1cccc(OC(F)(F)F)c1)c1ccccc1Oc1ccccc1)c1ccccc1 (centres undefined)
0.049 µM | CCc1cc(Oc2cccc(N(Cc3cc(C(F)(F)F)ccc3F)C[C@@H](O)C(F)(F)F)c2)ccc1Cl
0.08 µM | CC(C)(C)c1cccc(Oc2cccc(N(Cc3cccc(OC(F)(F)C(F)F)c3)CC(O)C(F)(F)F)c2)c1 (centres undefined)
0.09 µM | Cc1cccc(Oc2cccc(N(Cc3cccc(OC(F)(F)C(F)F)c3)CC(O)C(F)(F)F)c2)c1 (centres undefined)
0.4 µM | OC(CN(Cc1cccc(OC(F)(F)C(F)F)c1)c1cccc(OC2CCCC2)c1)C(F)(F)F (centres undefined)
0.035 µM | CCc1cc(Oc2cccc(N(Cc3cccc(OC(F)(F)F)c3)C[C@@H](O)C(F)(F)F)c2)ccc1Cl
12 µM | OC(CN(Cc1cccc(C(F)(F)F)c1)c1cccc(Cl)c1)C(F)(F)F (centres undefined)
0.66 µM | CC(C)(C)Oc1cccc(CN(CC(O)C(F)(F)F)c2cccc(Oc3ccccc3)c2)c1 (centres undefined)
> 100 µM | Cc1ccccc1CN(CC(O)C(F)(F)F)c1cccc(F)c1 (centres undefined)
18 µM | OC(CN(Cc1cccc(OC(F)(F)F)c1)c1ccccc1Oc1ccccc1)c1ccc(C(F)(F)F)cc1 (centres undefined)
> 100 µM | OC(CN(Cc1ccccc1)c1cccc(F)c1)C(F)(F)F (centres undefined)
0.0012 µM | OC(CN(Cc1cccc(Oc2cccc(C(F)(F)F)c2)c1)c1cccc(F)c1)C(F)(F)F (centres undefined)
0.3 µM | OC(CN(Cc1cccc(OC(F)(F)C(F)F)c1)c1cccc(Oc2ccc(Cl)cc2)c1)C(F)(F)F (centres undefined)
0.1 µM | O=[N+]([O-])c1c(F)cccc1Oc1cccc(N(Cc2cccc(OC(F)(F)C(F)F)c2)CC(O)C(F)(F)F)c1 (centres undefined)

Second part, the molecule before the results:

Compound | IC50
OC(CN(Cc1ccc(OC(F)(F)F)cc1)c1cccc(F)c1)C(F)(F)F (centres undefined) | 15 µM
COc1cccc(CN(CC(O)C(F)(F)F)c2cccc(Oc3ccccc3)c2)c1 (centres undefined) | 15 µM
OC(CN(Cc1cccc(OC(F)(F)C(F)F)c1)c1cccc(Oc2cccc(F)c2)c1)C(F)(F)F (centres undefined) | 0.3 µM
Cc1ccccc1N(Cc1cccc(C(F)(F)F)c1)CC(O)C(F)(F)F (centres undefined) | > 100 µM
O=[N+]([O-])c1ccccc1Oc1cccc(N(Cc2cccc(OC(F)(F)C(F)F)c2)CC(O)C(F)(F)F)c1 (centres undefined) | 0.4 µM
OC(CN(Cc1cccc(OC(F)(F)C(F)F)c1)c1cccc(Oc2cccc(Cl)c2Cl)c1)C(F)(F)F (centres undefined) | 0.03 µM
COc1cc(N(Cc2cccc(SC(F)(F)F)c2)C[C@@H](O)C(F)(F)F)cc(OC)c1OC | 5 µM
OC(CN(Cc1cccc(C(F)(F)F)c1)c1cccc(F)c1)C(F)(F)F (centres undefined) | 40 µM
OC(CN(Cc1cccc(C(F)(F)F)c1)c1cccc(C(F)(F)F)c1)C(F)(F)F (centres undefined) | 10 µM
CC(C)Cc1cccc(CN(CC(O)C(F)(F)F)c2cccc(Oc3ccccc3)c2)c1 (centres undefined) | 0.54 µM
Cc1ccc(Oc2cccc(N(Cc3cccc(OC(F)(F)C(F)F)c3)CC(O)C(F)(F)F)c2)cc1C (centres undefined) | 0.08 µM
OC(CN(Cc1cccc(Oc2ccccc2)c1)c1cccc(F)c1)C(F)(F)F (centres undefined) | 15 µM
OC(CN(Cc1cccc(C(F)(F)F)c1)c1ccccc1)C(F)(F)F (centres undefined) | 15 µM
OC(CN(Cc1cccc(OC(F)(F)F)c1)c1ccc(Oc2ccccc2)cc1)C(F)(F)F (centres undefined) | 25 µM
Cc1cccnc1-c1cccc(CN(CC(O)C(F)(F)F)c2cccc(Oc3ccccc3)c2)c1 (centres undefined) | 15 µM
Cc1cc(Oc2cccc(N(Cc3cccc(OC(F)(F)C(F)F)c3)CC(O)C(F)(F)F)c2)ccc1Cl (centres undefined) | 0.2 µM
OC(CN(Cc1cccc(SC(F)(F)F)c1)c1cccc(Oc2ccccc2)c1)C(F)(F)F (centres undefined) | 0.39 µM
Cc1cc(Oc2cccc(N(Cc3cccc(OC(F)(F)C(F)F)c3)CC(O)C(F)(F)F)c2)ccc1F (centres undefined) | 0.08 µM
OC(CN(Cc1cccc(Oc2ccccc2)c1)Cc1cccc(OC(F)(F)F)c1)C(F)(F)F (centres undefined) | 30 µM
OC(CN(Cc1ccc2c(c1)OC(F)(F)C(F)(F)O2)c1cccc(Oc2ccccc2)c1)C(F)(F)F (centres undefined) | 12 µM
OC(CN(Cc1ccc(F)c(-c2ccco2)c1)c1cccc(Oc2ccccc2)c1)C(F)(F)F (centres undefined) | 0.72 µM
OC(CN(Cc1cccc(C2CCCC2)c1)c1cccc(Oc2ccccc2)c1)C(F)(F)F (centres undefined) | 0.3 µM
Cc1cccc(N(Cc2cccc(C(F)(F)F)c2)CC(O)C(F)(F)F)c1 (centres undefined) | 10 µM

Compound | IC50
OC(CN(Cc1cccc(OC(F)(F)C(F)F)c1)c1cccc(OCc2cccc(C(F)(F)F)c2)c1)C(F)(F)F (centres undefined) | 0.09 µM
Cc1ccc(CN(CC(O)C(F)(F)F)c2cccc(F)c2)cc1 (centres undefined) | 65 µM
OC(CN(Cc1cccc(-c2cccs2)c1)c1cccc(Oc2ccccc2)c1)C(F)(F)F (centres undefined) | 1.12 µM
OC(CN(Cc1cccc(OC(F)(F)C(F)F)c1)c1cccc(Oc2cccnc2)c1)C(F)(F)F (centres undefined) | 1.3 µM
OC(CN(Cc1cccc(OC(F)(F)C(F)F)c1)c1cccc(Oc2cccc(F)c2F)c1)C(F)(F)F (centres undefined) | 0.1 µM
Cc1ccc(Oc2cccc(N(Cc3cccc(OC(F)(F)C(F)F)c3)C[C@@H](O)C(F)(F)F)c2)cc1 | 0.0081 µM
Cc1ccc(N(Cc2cccc(C(F)(F)F)c2)CC(O)C(F)(F)F)cc1 (centres undefined) | > 100 µM
Cc1ccc(Oc2cccc(N(Cc3cccc(OC(F)(F)C(F)F)c3)CC(O)C(F)(F)F)c2)cc1 (centres undefined) | 0.1 µM
OC(CN(Cc1cccc(OC(F)(F)C(F)(F)F)c1)c1cccc(Oc2ccc(S)cc2)c1)C(F)(F)F (centres undefined) | > 50 µM
OC(CN(Cc1cccc(-c2ncccc2C(F)(F)F)c1)c1cccc(Oc2ccccc2)c1)C(F)(F)F (centres undefined) | 4.08 µM
OC(CN(Cc1cccc(-c2ccccc2)c1)c1cccc(Oc2ccccc2)c1)C(F)(F)F (centres undefined) | 4.42 µM
CC(C)(O)c1cccc(CN(CC(O)C(F)(F)F)c2cccc(Oc3ccccc3)c2)c1 (centres undefined) | 7.8 µM
OC(CN(Cc1cccc(OC(F)(F)C(F)F)c1)c1cccc(Oc2ccc(-c3ccccc3)cc2)c1)C(F)(F)F (centres undefined) | 2.5 µM
OC(CN(Cc1cccc(-c2ccncc2)c1)c1cccc(Oc2ccccc2)c1)C(F)(F)F (centres undefined) | 6.24 µM
OC(CN(Cc1ccc(OC(F)(F)F)cc1)c1cccc(Oc2ccccc2)c1)C(F)(F)F (centres undefined) | 4 µM
Cc1cc(C)cc(Oc2cccc(N(Cc3cccc(OC(F)(F)C(F)F)c3)CC(O)C(F)(F)F)c2)c1 (centres undefined) | 0.07 µM
OC(CN(Cc1cccc(OC(F)(F)C(F)F)c1)c1cccc(OC2CCCCC2)c1)C(F)(F)F (centres undefined) | 2.6 µM
OC(CN(Cc1cccc(OC(F)(F)F)c1)Cc1cccc(OC(F)(F)F)c1)C(F)(F)F (centres undefined) | 23 µM
COC(=O)c1cccc(CN(CC(O)C(F)(F)F)c2cccc(Oc3ccccc3)c2)c1 (centres undefined) | 16 µM
OC(CN(Cc1cccc(OC(F)(F)C(F)F)c1)c1cccc(Oc2ccc(Cc3ccccc3)cc2)c1)C(F)(F)F (centres undefined) | 2.4 µM
CCCC(O)CN(Cc1cccc(OC(F)(F)F)c1)c1ccccc1Oc1ccccc1 (centres undefined) | 3.6 µM
Cc1ccc(CN(CC(O)C(F)(F)F)c2cccc(Oc3ccccc3)c2)cc1-c1ccco1 (centres undefined) | 3.96 µM

Biological target: T2, Cholesteryl ester transfer protein (Oryctolagus cuniculus) (UniProt P22687)
T2 sequence (whole entry): T1 sequence (P22687 whole entry)
Assay: Inhibition of CETP in rabbit serum at 10 uM after 1 hr by fluorescent cholesteryl esters transfer assay
Conditions: not given

inhibition | Compound
15.9% | O=C(CCCCC(=O)Nc1c(I)cc(I)c(C(=O)O)c1I)Nc1c(I)cc(I)c(C(=O)O)c1I
0% | Cc1cc2c(cc1C)NC1=C(O)C(c3c[nH]c4ccc(COc5ccccc5)cc34)OC1=N2 (centres undefined)
14.9% | COc1ccc(C(=O)c2ccc(/N=C/c3cccc(C(F)(F)F)c3)cc2)c(OC)c1

The remaining lines, values behind:

Compound | inhibition
CCN(CC)CCC(=O)c1ccc(Nc2ccnc3cc(Cl)ccc23)cc1 | 20.3%
COc1ccc(OCCCn2cc(-c3ccc(Cl)c(Cl)c3)c(=N)[nH]c2=O)cc1 | 0%
COc1cccc(/C=N/c2ccc(C(=O)c3ccc(OC)cc3OC)cc2)c1 | 23.7%
COc1ccc(/C=N/c2ccc(C(=O)c3ccc(OC)cc3OC)cc2)cc1 | 19.5%
